Measured values: patent US9884821B2, “N1-cyclic amine-N5-substituted biguanide derivatives, methods of preparing the same and pharmaceutical composition comprising the same” (IMMUNOMET THERAPEUTICS INC., priority 2013, dated 2018)
Values joined by “and” are separate entries in the source; they are usually repeats but may differ in a detail not shown here. Identical values can stand only once.

Experiments:
AMPK = AMPK activation effect (AMPK [pT172] ELISA) in MCF7 cells; assay type: cell-based, human; details: 24 hours; for AMPK activation effect (%) 5 μM / AMPK activation effect (%) 10 μM / AMPK activation effect (%) 50 μM: AMPKα Thr172 phosphorylation relative to untreated cells; for AC150: concentration at which AMPK activation reached 150%
Experimental: ELISA kit (Invitrogen, Catalog No. KH00651).
MCF7 cells were cultured in a DMEM medium supplemented with 10% fatal bovine serum (commercially available from Gibco Life Technologies (US)). Thereafter, the cultured MCF7 cells were put into a 6-well plate with approximately 5×10^5 cells per well, and cultured in an incubator supplied with 5% CO2. Culture media were treated with the derivatives synthesized in the Examples at concentrations of 5, 10 and 50 uM, and then cultured for 24 hours. […] Subsequently, the cells were lysed according to a method presented in the operation manual of the AMPK [pT172] ELISA kit, and 20 μg of a cell lysate was then yielded through protein assay. Thereafter, the AMPK activation effect was obtained by determining a degree of phosphorylation of a 172nd threonine residue (Thr172) of the AMPKα from the cell lysate according to the method presented in the operation manual of the AMPK [pT172] ELISA kit.

HCT116 cells = experiment: Effect of inhibiting cancer cell proliferation (MTT) in HCT116 cells; assay type: cell-based, human; details: for inhibition at 100 µM: read-out: Cell growth inhibition (%) at 100 μM; for inhibition at 25 µM: read-out: Cell growth inhibition (%) at 25 μM
From the text: HCT116 cells derived from human colorectal cancer were used, and an effect of inhibiting cancer cell proliferation of the biguanide derivative was confirmed by measuring a concentration value (cell growth inhibition concentration, GIC50) at which cell growth was inhibited by 50% using a 3-(4,5-dimethylthiazol-2-yl)-2,5-diphenyltetrazolium bromide (MTT) reagent.
First, HCT116 cells (purchased from the KCLB) were put on a 96-well plate and cultured in a DMEM medium supplemented with 10% fatal bovine serum (commercially available from Gibco Life Technologies (US)) for 16 hours so that approximately 5,000 cells were counted in each well. Subsequently, to obtain the GIC50 value of each compound, the culture media were treated with 100 μM, 25 μM, 6.25 μM, 1.56 μM or 0.39 μM of the compound, and then cultured for 48 hours. In order to determine whether the cells survived after treatment with the compounds, MTT (commercially available from AMRESCO (US)) was added to the culture media which were then cultured for another 3 hours. Formed formazane crystals were dissolved using dimethyl sulfoxide (DMSO) and the absorbance of the resulting solution was measured at 560 nm. After the 48-hour culture, a ratio of a living cell count on a well plate treated with the compounds synthesized in the Examples to a cell count cultured on a well plate not treated with the compound was indicated as cell viability (%) according to the concentration of each treated compound. The cell viability (%) was used to plot a cell viability curve graph and calculate a concentration (GIC50) value of the compound at which the growth was inhibited by 50%, thereby confirming the inhibition effect of cancer cell proliferation.

[1] = Homo sapiens, HCT-116, 48 h, 100 μM
[2] = Homo sapiens, HCT-116, 48 h, 25 μM

Row | Compound | AMPK activation effect (%) 5 μM (AMPK; hydrochloride) [%] | AMPK activation effect (%) 10 μM (AMPK; hydrochloride) [%] | AC150 (AMPK; hydrochloride) [µM] | Cell growth inhibition (%) at 25 μM (HCT116 cells; 25 μM, 48 hours, hydrochloride) [%] | GI50 (HCT116 cells; 48 hours, hydrochloride) [µM] | AMPK activation effect (%) 10 μM (AMPK) [%] | AMPK activation effect (%) 50 μM (AMPK) | AC150 (AMPK) [µM] | GI50 (HCT116 cells; Homo sapiens, HCT-116, 48 h) [µM] | inhibition at 100 µM (HCT116 cells; [1]) [%] | AMPK activation effect (%) 5 μM (AMPK) [%] | inhibition at 25 µM (HCT116 cells; [2]) [%] | Cell growth inhibition (%) at 100 μM (HCT116 cells; 100 μM, 48 hours)
1 | CC1CCCN(C(=N)NC(=N)Nc2ccc(F)c(C(F)(F)F)c2)C1.Cl (stereo not drawn) [Example 85, N1-(3-methyl)piperidine-N5-(4-fluoro, 3-trifluoromethyl)phenyl biguanide hydrochloride] | 345 | 436 | 0.7 | 100.2 | 7.1 | – | – | – | – | – | – | – | –
2 | CC1=CCN(C(=N)NC(=N)Nc2ccc(F)cc2)C1.Cl [Example 20, N1-(3-methyl)-1,2-dihydropyrrole-N5-(4-fluoro)phenyl biguanide hydrochloride] | – | – | – | – | – | 83 | 172% | 38.3 | 54.8 | 93.1 | – | – | –
3 | Cl.N=C(NC(=N)N1CC=CCC1)Nc1cccc(OC(F)(F)F)c1 [Example 30, N1-1,2,3,6-tetrahydropyridine-N5-(3-trifluoromethoxy)phenyl biguanide hydrochloride] | – | – | – | – | – | 703 | – | 0.53 | 7.5 | 99.7 | – | – | –
4 | CC1CCCN(C(=N)NC(=N)Nc2ccc(Cl)c(C(F)(F)F)c2)C1.Cl (stereo not drawn) [Example 69, N1-(3-methyl)piperidine-N5-(4-chloro, 3-trifluoromethyl)phenyl biguanide hydrochloride] | – | – | – | – | – | 650 | – | 1.2 | 1.9 | – | 307 | 100 | –
5 | CN(C)C(=N)N=C(N)N [Metformin, reference compound] | – | – | – | – | – | – | 130% and 130 (at 50 μM) % | – | 2170 | 6.5 | – | – | 6.5 (at 100 μM ) %
6 | CC1CCCN(C(=N)NC(=N)Nc2ccc(C(F)(F)F)cc2)C1.Cl (stereo not drawn) [Example 81, N1-(3-methyl)piperidine-N5-(4-trifluoromethyl)phenyl biguanide hydrochloride] | – | – | – | – | – | 396 | – | 1.9 | 7.7 | – | 224 | 100 | –
7 | CC1CCCC(C)N1C(=N)NC(=N)Nc1cccc(OC(F)(F)F)c1.Cl (stereo not drawn) [Example 90, N1-(2,6-dimethyl)piperidine-N5-(3-trifluoromethoxy)phenyl biguanide hydrochloride] | – | – | – | – | – | 317 | – | 0.8 | 3.2 | – | 281 | 100 | –
8 | COc1ccc(NC(=N)NC(=N)N2CC=CCC2)cc1.Cl [Example 40, N1-1,2,3,6-tetrahydropyridine-N5-(4-methoxyl)phenyl biguanide hydrochloride] | – | – | – | – | – | 122 | 163% | 37.8 | > 100 | 37.4 | – | – | –
9 | CC1=CCN(C(=N)NC(=N)Nc2cccc(C(F)(F)F)c2)C1.Cl [Example 19, N1-(3-methyl)-1,2-dihydropyrrole-N5-(3-trifluoromethyl)phenyl biguanide hydrochloride] | – | – | – | – | – | 306 | – | 1.5 | 9.1 | 99.6 | – | – | –
10 | CC1=CCN(C(=N)NC(=N)Nc2ccc(C(F)(F)F)cc2)C1.Cl [Example 16, N1-(3-methyl)-1,2-dihydropyrrole-N5-(4-trifluoromethyl)phenyl biguanide hydrochloride] | – | – | – | – | – | 398 | – | 1.7 | 10.8 | 99.3 | – | – | –
11 | Cl.N=C(NC(=N)N1CC=CCC1)Nc1ccc(OC(F)(F)F)cc1 [Example 28, N1-1,2,3,6-tetrahydropyridine-N5-(4-trifluoromethoxy)phenyl biguanide hydrochloride] | – | – | – | – | – | 732 | – | 0.15 | 8.4 | 100 | – | – | –
12 | CCCCCCNC(=N)NC(=N)N1CC=CCC1.Cl [Example 53, N1-1,2,3,6-tetrahydropyridine-N5-hexyl biguanide hydrochloride] | – | – | – | – | – | 311 | 589% | 2.3 | 43.7 | 97.9 | – | – | –
13 | CC1CCCCN1C(=N)NC(=N)Nc1ccc(OC(F)(F)F)c(F)c1.Cl (stereo not drawn) [Example 76, N1-(2-methyl)piperidine-N5-(3-fluoro, 4-trifluoromethoxy)phenyl biguanide hydrochloride] | – | – | – | – | – | 375 | – | 1.7 | 5.8 | – | 242 | 100 | –
14 | CC1CCCN(C(=N)NC(=N)Nc2cccc(OC(F)(F)F)c2)C1.Cl (stereo not drawn) [Example 83, N1-(3-methyl)piperidine-N5-(3-trifluoromethoxy)phenyl biguanide hydrochloride] | – | – | – | – | – | 398 | – | 0.5 | 6.8 | – | 352 | 100 | –
15 | CC1CCCCN1C(=N)NC(=N)Nc1ccc(Cl)c(C(F)(F)F)c1.Cl (stereo not drawn) [Example 80, N1-(2-methyl)piperidine-N5-(4-chloro, 3-trifluoromethyl)phenyl biguanide hydrochloride] | – | – | – | – | – | 590 | – | 1.1 | 6.8 | – | 334 | 99.7 | –
16 | CC1=CCN(C(=N)NC(=N)Nc2ccc(OC(F)(F)F)cc2)C1.Cl [Example 15, N1-(3-methyl)-1,2-dihydropyrrole-N5-(4-trifluoromethoxy)phenyl biguanide hydrochloride] | – | – | – | – | – | 554 | – | 1.6 | 10.1 | 99.2 | – | – | –
17 | CC1=CCN(C(=N)NC(=N)Nc2cccc(OC(F)(F)F)c2)C1.Cl [Example 25, N1-(3-methyl)-1,2-dihydropyrrole-N5-(3-trifluoromethoxy)phenyl biguanide hydrochloride] | – | – | – | – | – | 376 | – | 2.2 | 4.9 | 96.6 | – | – | –
18 | CC1CCCN(C(=N)NC(=N)Nc2ccc(Br)cc2)C1.Cl (stereo not drawn) [Example 68, N1-(3-methyl)piperidine-N5-(4-bromo)phenyl biguanide hydrochloride] | – | – | – | – | – | 136 | – | 13.7 | 45.3 | – | 52 | 29.4 | –
19 | Cl.N=C(NC(=N)N1CC=CCC1)Nc1ccc(Cl)cc1 [Example 35, N1-1,2,3,6-tetrahydropyridine-N5-(4-chloro)phenyl biguanide hydrochloride] | – | – | – | – | – | 314 | – | 2.4 | 18.4 | 99.1 | – | – | –
20 | Cl.N=C(NCc1ccc(C(F)(F)F)cc1)NC(=N)N1CC=CCC1 [Example 56, N1-1,2,3,6-tetrahydropyridine-N5-(4-trifluoromethyl)benzyl biguanide hydrochloride] | – | – | – | – | – | 389 | 671% | 2.1 | 26.9 | 97.7 | – | – | –
21 | COc1ccc(NC(=N)NC(=N)N2CC=C(C)C2)cc1OC.Cl [Example 23, N1-(3-methyl)-1,2-dihydropyrrole-N5-(3,4-dimethoxy)phenyl biguanide hydrochloride] | – | – | – | – | – | 57 | 279% | 21.3 | 89.9 | 29.5 | – | – | –
22 | CC1CCCC(C)N1C(=N)NC(=N)Nc1ccc(Cl)c(C(F)(F)F)c1.Cl (stereo not drawn) [Example 94, N1-(2,6-dimethyl)piperidine-N5-(4-chloro, 3-trifluoromethyl)phenyl biguanide hydrochloride] | – | – | – | – | – | 643 | – | 1.1 | 2.8 | – | 328 | 100 | –
